From article PMC13070491, “Single-nucleus transcriptomics, pharmacokinetics, and pharmacodynamics of CDK4/6 and mTOR inhibition in a Phase 0/1 trial of recurrent high-grade glioma” (Neuro-Oncology, 2025)
Where “and” joins values, the source holds several entries; their conditions need not be identical. Equal values may be shown once.

How the values were obtained:
[1] = Adverse events related to study treatment (CTCAE); assay type: in vivo, human; details: Dose Level 0: ribociclib 400mg + everolimus 2.5mg QD 5 days; CTCAE grade 1
Procedure: Eligibility was determined based on previous clinical records, panel DNA sequencing, and IHC of archival tissue from a previous surgery (Figure 1, Supplementary Figure S2A).

[2] = Plasma pharmacokinetic parameters (LC-MS/MS); details: for AUC(0-t): AUClast; for AUC(0-t) / Cmax / Tmax / AUClast / CL/F / T1/2: total everolimus plasma; for half-life: T1/2, total everolimus plasma
Procedure: Pharmacokinetic evaluation was conducted as previously described[8] using a validated liquid chromatography with tandem mass spectrometry (LC-MS/MS) method.[16] […] CSF samples were intraoperatively collected.

[3] = human, plasma, oral, 2.5 mg, mean
[4] = human, plasma, oral, 2.5 mg, median
[5] = human, plasma, oral, 5 mg, mean
[6] = human, plasma, oral, 5 mg, median
[7] = human, plasma, oral, 10 mg, mean
[8] = human, plasma, oral, 10 mg, median
[9] = human, plasma, oral, 50 mg, mean
[10] = human, plasma, oral, 50 mg, median
[11] = human, plasma, oral, 60 mg, mean
[12] = human, plasma, oral, 60 mg, median
[13] = human, plasma, oral, 70 mg, individual patients
[14] = human, plasma, oral, 70 mg, mean
[15] = human, plasma, oral, 70 mg, median
[16] = dose 2.5 mg, individual patients
[17] = dose 10 mg, individual patients
[18] = dose 50 mg, individual patients, listed as everolimus
[19] = dose 60 mg, individual patients
[20] = dose 70 mg, individual patients

For `CO[C@H]1C[C@@H]2CC[C@@H](C)[C@@](O)(O2)C(=O)C(=O)N2CCCC[C@H]2C(=O)O[C@H]([C@H](C)C[C@@H]2CC[C@@H](OCCO)[C@H](OC)C2)CC(=O)[C@H](C)/C=C(\C)[C@@H](O)[C@@H](OC)C(=O)[C@H](C)C[C@H](C)/C=C/C=C/C=C/1C` [Everolimus, everolimus], the “Stomatitis, No. Patients Affected” value [1] was 1, the AUC(0-t) [2, 3] was 0.31 µM·h and the AUC(0-t) [2, 4] was 0.23 µM·h. The Cmax ([2]; human, plasma, oral, 2.5 mg, Cmax, mean) was 33.7 nM, the half-life [2, 3] was 21.6 h and the half-life [2, 4] was 17.2 h. The Tmax ([2]; human, plasma, oral, 2.5 mg, Tmax, mean) was 1.86 h, the AUC(0-t) ([2]; human, plasma, oral, 5 mg, individual patients) was 0.55 µM·h and the AUC(0-t) [2, 5] was 0.43 µM·h. The AUC(0-t) [2, 6] was 0.5 µM·h, the Cmax ([2]; human, plasma, oral, 5 mg, Cmax, mean) was 34.1 nM and the half-life [2, 5] was 19.9 h. For the same molecule, the half-life [2, 6] was 18.8 h, the Tmax ([2]; human, plasma, oral, 5 mg, Tmax, mean) was 2.69 h and the Tmax ([2]; human, plasma, oral, 5 mg, Tmax, median) was 2.03 h. The AUC(0-t) [2, 7] was 0.9 µM·h, the AUC(0-t) [2, 8] was 0.82 µM·h and the Cmax ([2]; human, plasma, oral, 10 mg, Cmax, individual patients) was 80 nM. For the same molecule, the half-life ([2]; human, plasma, oral, 10 mg, individual patients) was 22.1 h, the half-life [2, 7] was 21.8 h and the half-life [2, 8] was 21.8 h. For the same molecule, the Tmax ([2]; human, plasma, oral, 10 mg, Tmax, mean) was 3.23 h, the Tmax ([2]; human, plasma, oral, 10 mg, Tmax, median) was 3.92 h and the AUC(0-t) ([2]; human, plasma, oral, 50 mg, individual patients) was 1.35 µM·h. For the same molecule, the AUC(0-t) [2, 9] was 1.59 µM·h, the AUC(0-t) [2, 10] was 1.61 µM·h and the Cmax ([2]; human, plasma, oral, 50 mg, Cmax, individual patients) was 110 nM. For the same molecule, the Cmax ([2]; human, plasma, oral, 50 mg, Cmax, mean) was 140 nM, the Cmax ([2]; human, plasma, oral, 50 mg, Cmax, median) was 130 nM and the half-life [2, 9] was 29.3 h. The half-life [2, 10] was 21.3 h, the Tmax ([2]; human, plasma, oral, 50 mg, Tmax, mean) was 1.31 h and the Tmax ([2]; human, plasma, oral, 50 mg, Tmax, median) was 1.12 h. It also gave an AUC(0-t) ([2]; human, plasma, oral, 60 mg, individual patients) of 1.93 µM·h, an AUC(0-t) [2, 11] of 1.88 µM·h and an AUC(0-t) [2, 12] of 1.88 µM·h. For the same molecule, the Cmax ([2]; human, plasma, oral, 60 mg, Cmax, individual patients) was 190 nM, the Cmax ([2]; human, plasma, oral, 60 mg, Cmax, mean) was 190 nM and the Cmax ([2]; human, plasma, oral, 60 mg, Cmax, median) was 190 nM. The half-life [2, 11] was 19.7 h, the half-life [2, 12] was 19.7 h and the AUC(0-t) [2, 13] was 1.24 µM·h. The AUC(0-t) [2, 14] was 1.29 µM·h, the AUC(0-t) [2, 15] was 1.27 µM·h and the Cmax ([2]; human, plasma, oral, 70 mg, Cmax, individual patients) was 120 nM. It also gave a Cmax ([2]; human, plasma, oral, 70 mg, Cmax, mean) of 120 nM, a Cmax ([2]; human, plasma, oral, 70 mg, Cmax, median) of 120 nM and a half-life [2, 13] of 18.7 h. For the same molecule, the half-life [2, 14] was 19.4 h, the half-life [2, 15] was 19.4 h and the Tmax ([2]; human, plasma, oral, 70 mg, Tmax, mean) was 4.25 h. The Tmax ([2]; human, plasma, oral, 70 mg, Tmax, median) was 1.93 h, the AUClast [2, 16] was 0.41 µM·h and 0.68 µM·h and 0.46 µM·h and 0.32 µM·h and 0.19 µM·h and 0.16 µM·h and 0.14 µM·h and the CL/F [2, 16] was 6.33 L/h and 3.85 L/h and 5.73 L/h and 8.25 L/h and 11.50 L/h and 13.68 L/h and 16.29 L/h and 18.14 L/h and 15.94 L/h. For the same molecule, the Tmax [2, 16] was 0.93 h and 1.00 h and 1.88 h and 2.05 h and 1.05 h and 3.97 h and 1.92 h and 1.95 h and 2.02 h, the CL/F ([2]; dose 2.5 mg, mean) was 11.08 L/h and the CL/F ([2]; dose 2.5 mg, median) was 11.50 L/h. It also gave a Cmax ([2]; dose 2.5 mg, median) of 30 nM, a Tmax ([2]; dose 2.5 mg, median) of 1.92 h and an AUClast ([2]; dose 5 mg, individual patients) of 0.22 µM·h. The CL/F ([2]; dose 5 mg, individual patients) was 9.45 L/h and 23.36 L/h and 10.39 L/h, the Cmax ([2]; dose 5 mg, individual patients) was 45.2 nM and 21.1 nM and the T1/2 ([2]; dose 5 mg, individual patients) was 28.35 h and 18.84 h and 12.56 h. For the same molecule, the Tmax ([2]; dose 5 mg, individual patients) was 1.95 h and 4.10 h, the CL/F ([2]; dose 5 mg, mean) was 14.40 L/h and the CL/F ([2]; dose 5 mg, median) was 10.39 L/h. The Cmax ([2]; dose 5 mg, median) was 36.2 nM, the AUClast [2, 17] was 0.49 µM·h and 0.63 µM·h and 1.02 µM·h and 1.48 µM·h and the CL/F [2, 17] was 21.35 L/h and 16.51 L/h and 10.28 L/h and 7.07 L/h. For the same molecule, the Cmax [2, 17] was 120 nM, the T1/2 [2, 17] was 21.52 h and the Tmax [2, 17] was 4.03 h and 1.05 h and 3.83 h and 4.00 h. The CL/F ([2]; dose 10 mg, mean) was 13.80 L/h, the Cmax ([2]; dose 10 mg, mean) was 90 nM and the CL/F ([2]; dose 10 mg, median) was 13.40 L/h. For the same molecule, the Cmax ([2]; dose 10 mg, median) was 84.6 nM, the Cmax ([2]; dose 50 mg, individual patients) was 130 nM and the AUClast [2, 18] was 1.87 µM·h and 1.42 µM·h and 1.72 µM·h. For the same molecule, the CL/F [2, 18] was 21.38 L/h and 14.80 L/h and 15.39 L/h and 21.73 L/h and 8.55 L/h, the Cmax [2, 18] was 130 nM and 160 nM and 170 nM and the Tmax [2, 18] was 1.87 h and 1.78 h and 0.83 h and 0.95 h. The CL/F ([2]; dose 50 mg, mean) was 16.37 L/h, the CL/F ([2]; dose 50 mg, median) was 15.39 L/h and the AUClast [2, 19] was 1.83 µM·h. The CL/F [2, 19] was 23.69 L/h and 16.85 L/h, the T1/2 [2, 19] was 12.25 h and 27.10 h and the Tmax [2, 19] was 1.00 h. For the same molecule, the CL/F ([2]; dose 60 mg, mean) was 20.27 L/h, the Tmax ([2]; dose 60 mg, mean) was 1.00 h and the CL/F ([2]; dose 60 mg, median) was 20.27 L/h. The Tmax ([2]; dose 60 mg, median) was 1.00 h, the AUClast [2, 20] was 1.36 µM·h and the CL/F [2, 20] was 35.41 L/h and 33.84 L/h. The Cmax [2, 20] was 90 nM, the T1/2 [2, 20] was 20.18 h and the Tmax [2, 20] was 9.75 h and 1.07 h. For the same molecule, the CL/F ([2]; dose 70 mg, mean) was 34.62 L/h and the CL/F ([2]; dose 70 mg, median) was 34.62 L/h.
